We go through 10 molecules from patent publication US5420289A, “Substituted indole-, indene-, pyranoindole- and tetrahydrocarbazole-alkanoic acid derivatives as inhibitors of PLA2 and lipoxygenase” (American Home Products Corporation, priority 1993, dated 1995).

For test [1], the target named is T1, human synovial fluid PLA2 (Homo sapiens, UniProt P14555).
T1 sequence (P14555 21-144): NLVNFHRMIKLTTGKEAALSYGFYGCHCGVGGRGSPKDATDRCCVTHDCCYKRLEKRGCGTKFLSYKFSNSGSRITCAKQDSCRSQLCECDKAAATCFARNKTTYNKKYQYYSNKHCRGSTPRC
Kind of test: in vitro isolated phospholipase A2 assay, human synovial fluid PLA2 (Example 74). Type of test: biochemical. Set-up: inhibition / % Inhibition, HSF (human synovial fluid): dose or concentration left out as unconfirmed. Particulars: for inhibition: read-out: % Inhibition, HSF (human synovial fluid); for IC50: Table III, read-out: IC50 HSF (human synovial fluid). In short, it runs like this:
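Human synovial fluid PLA2 (purified) acts on ³H-arachidonate-labelled E. coli substrate, 10 minutes at 37° C with shaking; stopped with tetrahydrofuran. Released arachidonic acid is isolated on NH2 columns, eluted with tetrahydrofuran/2% acetic acid and quantitated by β-counting against a total-counts sample.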

For test [2], the target named is T2, human platelet PLA2 (Homo sapiens, UniProt P14555).
T2 construct: Semi-purified human platelet acid extract PLA2; from tissue; host or cells: human platelets (semi-purified acid extract)
T2 sequence (P14555 21-144): T1 sequence (P14555 21-144)
Nature of the test: in vitro isolated phospholipase A2 assay, human platelet PLA2 (Example 74). Set-up: dose or concentration left out as unconfirmed. Format: biochemical. Particulars: read-out: % Inhibition, HP (human platelet). The method, then:
The compounds of the invention are tested in an in vitro isolated phospholipase A2 assay to determine the ability of the test compounds to inhibit the release of arachidonic acid from an arachidonic acid-containing substrate by the action of phospholipase A2 enzyme from human and non-human sources.
This assay is carried out as follows:
Into a 15 mL polypropylene tube are added the following:
^6 Two human PLA2 enzymes are used:
a) Semi-purified human platelet acid extract PLA2 (in 10 mM
sodium acetate buffer, pH 4.5). Remove protein precipitate by
centrifugation at about 2200 rpm for 10 minutes.
Incubate the 100mL reaction mixture for 10 minutes at 37° C. in a shaking water bath. The reaction is terminated by the addition of 2 mL tetrahydrofuran, followed by vortexlag. NH2 columns (100 mg/mL--Analytichem International) are conditioned with 0.5 mL tetrahydrofuran followed by 0.5 mL tetrahydrofuran/water (2 mL:0.1 mL, v/v).
The sample is loaded onto the columns and slowly drawn through them. The hydrolyzed arachidonic acid retained in the columns is eluted therefrom with 1 mL tetrahydrofuran/glacial acetic acid (2%). The arachidonic acid is transferred to scintillation vials and quantitated by b-counting analysis. A "total counts" sample is prepared by pipetting […] ^3 H-arachidonate E. coli directly into a scintillation vial to which is added 1 mL tetrahydrofuran. 10 mL aquasol (scintillation cocktail) is added to all samples. [formula]

Test [3] relates to paw edema induced by PLA2 from the diamond back cotton mouth snake (A. piscivorus piscivorus). Kind of test: in vivo PLA2 murine paw edema assay (Example 75). Set-up: species or system mouse (male CD-1).
Test [4] shares this test system. Kind of test: in vivo PLA2 murine paw edema assay (Example 75). Also on record: species or system mouse (male CD-1). Particulars: for ED50 at +10 min.: p.o., at +10 min after PLA2, standard drugs. The method, then:
The ability of the compounds of the invention to inhibit paw edema induced by the exogenous administration of PLA2 is measured in the in vivo PLA2 murine paw edema assay.
The assay is carried out as follows:
Non-fasted, male CD-1 mice (8 weeks old; 31-36 grams) are placed in plastic boxes in groups of six. The right hind paw volume is measured using mercury plethysmography (zero time). Compounds are dosed orally (0.5 mL of 0.5% Tween-80) 1 or 3 hours prior to PLA2 injection or intravenously (0.2 mL in 0.3% dimethylsulfoxide/saline) 3 minutes prior to PLA2 injection. A solution of purified PLA2, from the diamond back cotton mouth snake (A. piscivorus piscivorus) is prepared in saline at a concentration of 6 mg/mL. Fifty (50) uL (0.3 mg) of this PLA2 solution is injected subcutaneously into the right hind paw with a plastic 1 mL plastic syringe (27 gauge, "1" needle). Paw volume of the injected paw is measured again at 10 minutes, 30 minutes and 60 minutes after PLA2 injection. Animals are euthanized with CO2 at the completion of the study.
The paw edema is calculated by subtracting the zero time volume from the volume recorded at each time period. Mean paw edema for each treatment group is then calculated and expressed as (mL±S.E.). Drug effects are expressed as a percent change from control (vehicle) values. Statistical significance is determined by a one-way analysis of variance with LSD comparison to control (p<0.05). ED50 's are determined using repression analysis.

For test [5], the system named is cyclooxygenase (PGE2 synthesis) in rat polymorphonuclear leukocytes (PMN). Kind of test: inhibition of PGE2 synthesis (cyclooxygenase) by rat glycogen-elicited PMN (Example 73). Particulars: Leukocyte, * (negative) denotes a potentiation; for inhibition at 10000 µM: at 10 mM, read-out: % Inhibition (PGE2 synthesis); for inhibition at 500 µM: at 0.5 mM. Type of test: cell-based, rat (female Wistar). The procedure:
(§1) Rat polymorphonuclear leukocytes (PMNs) are obtained from female Wistar rats (150-200 g) which receive an injection of 6% glycogen (10 ml i.p.). Rats are sacrificed 18-24 hours post injection by CO2 asphyxiation and the elicited cells are harvested by peritoneal lavage using physiological saline (0.9% NaC1). The exudate is centrifuged at 400 ×g for 10 minutes. The supernatant fluid is discarded and the cell pellet is resuspended to a concentration of 2.0×10^7 cells/mL in HBSS containing Ca^++ and Mg^++ and 10 mM L-cysteine.
(§2) To 1 mL aliquots of cell suspension, test drugs or vehicle are added, then preincubated at 37° C. for 10 minutes. A23187 (1 mM), [^3 H]-AA (3.0 mCi/mL) and unlabeled AA (1 mM) are then added and the samples are further incubated for 10 minutes. The reaction is terminated by centrifugation and pelleting cells. Supernatants are then analyzed by HPLC analysis on a 15 cm×4.6 mm ID supelcosil LC-18 (Supelco)(3M) column, using a two solvent system at a flow rate of 1.4 mL total flow as follows:
In this assay, the procedure of Example 72 is carried out as described. However, in order to determine cyclooxygenase activity, the samples are cochromatographed with authentic reference [^3 H]-PGE2.
The results be calculated as in Example 72 and presented below: […]

Test [6] deals with synthesis of LTB4 by rat glycogen-elicited polymorphonuclear leukocytes (PMN). Kind of test: inhibition of LTB4 synthesis by rat glycogen-elicited PMN (Example 72). Type of test: cell-based, rat (female Wistar). Particulars: Leukocyte; for inhibition at 10000 µM: at 10 mM, negative number denotes potentiation.
Description: This is especially true with respect to 5,12-diHETE, which is also denoted as LTB4 lsee Ford-Hitchinson, J. Roy. Soc. Med., 74, 831 (1981)]. Compounds which inhibit the PLA2 -mediated release of arachidonic acid thereby effectively prevent the oxidation of arachidonic acid to the various leukotriene products via the lipoxygenase cascade. Accordingly, the specificity of action of PLA2 inhibitors can be determined by the activity of test compounds in this assay, which measures the ability of compounds to inhibit the synthesis of LTB4 by rat glycogen-elicited polymorphonuclear leukocytes (PMN) in the presence of exogenous substrate.
The assay is carded out as follows:
as §1, §2
Gradient: (system is equilibrated with Solvent A)
Percent solvent changes are accomplished in a linear fashion.
Injections: […] of each supernatant is injected directly onto column and ^3 H arachidonic acid metabolites are monitored using an on-line radioactivity detector (Ramona, IN/U S, Fairfield, NJ).
Standards: 10^4 -2.0×10^4 dpm of eicosanoids of interest are injected in […] EtOH cocktail.
Co-chromatography with standard [^3 H] leukotriene B4 (LTB4) in medium of stimulated PMN exposed to drug is compared to that found in medium of stimulated cells exposed to no drug, generating percent inhibition.
Results are expressed as percent inhibition at a given compound dose or as an IC50 value.

On to `CCCCCCOc1ccc2c(c1)c(CC(=O)O)c(C)n2Cc1ccc(Cl)cc1` [Example 19, 1-[(4-Chlorophenyl)methyl]-5-(hexyloxy)-2-methyl-1H-indole-3-acetic acid], for which the results for the inhibition in test [1] and in test [2] were 45% and 71%, respectively. Also, the “% Change in Edema” value is recorded as -30% in test [3] (30 mg/kg i.p., 30 min) and -34% in test [3] (60 mg/kg i.p., 30 min).
Consider `COc1ccc2cc([C@H](C)C(=O)O)ccc2c1` [Naproxen, reference compound], for which the 50% effective dose (ED50) (usually the midpoint of the dose-response relation) at +10 min. in test [4] is given as 18 mg/kg.
Take `CC1=C(CC(=O)O)c2cc(OCc3ccc4ccccc4n3)ccc2/C1=C\c1ccc(Cl)cc1` [Example 1, 3-[(4-Chlorophenyl)methylene]-[2-methyl-6-(2-quinolinylmethoxy)]-3H-indene-1-acetic acid]: in test [1], the IC50 (commonly the concentration that inhibits the measured activity by half) was 9.7 µM. The “% Change in Edema” value in test [4] (10 mg/kg i.v., 10 min) is -6%; in test [4] (10 mg/kg i.v., 30 min) it was -9%; in test [4] (10 mg/kg i.v., 60 min), -40%; in test [4] (100 mg/kg p.o., 10 min), “+4%”; in test [4] (100 mg/kg p.o., 30 min), -27%; in test [4] (100 mg/kg p.o., 60 min) it was -6%. In addition, the inhibition – broadly, the drop in the measured response relative to a control, in per cent – at 10000 µM in test [5] stood at 81%; in test [6], 96%.
For Luffarrellolide [reference compound], the median effective dose (ED50) at +10 min. in test [4] was “Not Active”.
With `CC1=C(CC(=O)O)c2cc(OCc3ccc4ccccc4n3)ccc2C1=Cc1ccc(OCc2ccc3ccccc3n2)cc1` [Example 41, 2-Methyl-5-(2-quinolinylmethoxy)-1-[[4-(2-quinolinylmethoxy)phenyl]methylene]-1H-indene-3-acetic acid], the inhibition in test [1] was found to be 3.8%; in test [2] it was 90%. Besides, the inhibition at 500 µM in test [5] is -21%. For the same molecule, in test [6], the inhibition at 10000 µM turned out to be 100%.
For the molecule `COc1cccc2c1cc([N+](=O)[O-])c1c(C(=O)O)cc3c(c12)OCO3` [Aristolochic Acid, reference compound], the “ED50 at +10 min.” value in test [4] is “Not Active”.
Take `COc1ccc2c(c1)c(CC(=O)O)c(C)n2C(=O)c1ccc(Cl)cc1` [indomethacin, reference compound]: the IC50 in test [1] turned out to be 145 µM. The “% Change in Edema” value in test [3] (10 mg/kg p.o., 10 min) is recorded as -32%; in test [3] (10 mg/kg p.o., 30 min), -31%; in test [3] (10 mg/kg p.o., 60 min) it was -42%.
As for `CC1=C(CC(=O)O)c2cc(F)ccc2C1=Cc1ccc(OCc2ccc3ccccc3n2)cc1` [Example 4, 5-Fluoro-2-methyl-1-[[4-(2-quinolinylmethoxy)phenyl]methylene]-1H-indene-3-acetic acid], the inhibition in test [1] is 48%; in test [2], 58%. Further, the inhibition at 500 µM in test [5] was determined as 7%; in test [6] (at 0.5 mM), 92%.
Take `CSc1ccc(/C=C2/C(C)=C(CC(=O)O)c3cc(OCc4ccc5ccccc5n4)ccc32)cc1` [Example 2, 2-Methyl-3-[[4-(methylthio)phenyl]methylene]-6-(2-quinolinylmethoxy)-3H-indene-1-acetic acid]: the IC50 in test [1] worked out at 3.6 µM. Besides, the “% Change in Edema” value in test [4] (10 mg/kg i.v., 10 min) is given as -39%; in test [4] (10 mg/kg i.v., 30 min), -43%; in test [4] (10 mg/kg i.v., 60 min), -37%; in test [4] (100 mg/kg p.o., 10 min) it was -6%; in test [4] (100 mg/kg p.o., 30 min), -22%; in test [4] (100 mg/kg p.o., 60 min), “+18%”. The inhibition at 10000 µM is 92% in test [5] and 96% in test [6].
On to `C[C@@H]1C[C@H]2[C@@H]3CCC4=CC(=O)C=C[C@]4(C)[C@@]3(F)[C@@H](O)C[C@]2(C)[C@@]1(O)C(=O)CO` [Dexamethasone], for which the median effective dose (ED50) at +10 min. in test [3] (p.o. 3 hr, at +10 min after PLA2) came out at 10 mg/kg.
